The numbers were not newly measured in PubChem BioAssay AID1259409 (Chemical Carcinogenesis Research Information System (CCRIS), 2018), which cites them from elsewhere.

This series deals with rodent chemically induced tumor inhibition, incidence and multiplicity. The experiment in a line: CCRIS tumor inhibitor studies. Particulars: Dose [Inhibitor]: 0, Route [Inhibitor]: ORAL, Species: RAT, Strain/Sex: F344/MALE.

Regarding `COc1cc(/C=C/C(=O)O[C@H]2CC[C@]34C[C@]35CC[C@]3(C)[C@@H]([C@H](C)CCC=C(C)C)CC[C@@]3(C)[C@@H]5CC[C@H]4C2(C)C)ccc1O`, the “tumour outcome (control, treated, inhibition, significance)” value by setting is: (Carcinogen: 2,2'-DIHYDROXY-DI-N-PROPYLNITROSAMINE, 53609-64-6, N-ETHYL-N-HYDROXYETHYLNITROSAMINE, 13147-25-6, 3,2'-DIMETHYL-4-AMINO-, Carcinogen: 2,2'-DIHYDROXY-DI-N-PROPYLNITROSAMINE, 53609-64-6, N-ETHYL-N-HYDROXYETHYLNITROSAMINE, 13147-25-6, 3,2'-DIMETHYL-4-AMINO-, 1% IN DIET FOR 32 WK BEGINNING 1 WK POST CARCINOGEN TREATMENT (STUDY DURATION: 36 WK), Target Tissue: Type of Lesion: LUNG: ADENOMA, Dose [Carcinogen]: 1000 MG/KG BW DHPN TWICE 1500 MG/KG BW EHEN TWICE, 75 MG/KG BW 3 TIMES ADMINISTERED OVER FIRST 3 WK, Promoter: NONE USED) 7/14 (50%), 11/13 (85%), -70%, not significant; (Carcinogen: 2,2'-DIHYDROXY-DI-N-PROPYLNITROSAMINE, 53609-64-6, N-ETHYL-N-HYDROXYETHYLNITROSAMINE, 13147-25-6, 3,2'-DIMETHYL-4-AMINO-, Carcinogen: 2,2'-DIHYDROXY-DI-N-PROPYLNITROSAMINE, 53609-64-6, N-ETHYL-N-HYDROXYETHYLNITROSAMINE, 13147-25-6, 3,2'-DIMETHYL-4-AMINO-, 1% IN DIET FOR 32 WK BEGINNING 1 WK POST CARCINOGEN TREATMENT (STUDY DURATION: 36 WK), Target Tissue: Type of Lesion: THYROID GLAND: ADENOMA, Dose [Carcinogen]: 1000 MG/KG BW DHPN TWICE, 1500 MG/KG BW EHEN TWICE 75 MG/KG BW 3 TIMES ADMINISTERED OVER FIRST 3 WK, Promoter: NONE USED) 3/14 (21%), 2/13 (15%), 29%, not significant; (Carcinogen: 2,2'-DIHYDROXY-DI-N-PROPYLNITROSAMINE, 53609-64-6, N-ETHYL-N-HYDROXYETHYLNITROSAMINE, 13147-25-6, 3,2'-DIMETHYL-4-AMINO-, Carcinogen: 2,2'-DIHYDROXY-DI-N-PROPYLNITROSAMINE, 53609-64-6, N-ETHYL-N-HYDROXYETHYLNITROSAMINE, 13147-25-6, 3,2'-DIMETHYL-4-AMINO-, 1% IN DIET FOR 32 WK BEGINNING 1 WK POST CARCINOGEN TREATMENT (STUDY DURATION: 36 WK), Target Tissue: Type of Lesion: THYROID GLAND: CARCINOMA, Dose [Carcinogen]: 1000 MG/KG BW DHPN TWICE, 1500 MG/KG BW EHEN TWICE, 75 MG/KG BW 3 TIMES ADMINISTERED OVER FIRST 3 WK, Promoter: NONE USED) 3/14 (21%), 1/13 (8%), 62%, not significant; (Carcinogen: 2,2'-DIHYDROXY-DI-N-PROPYLNITROSAMINE, 53609-64-6, N-ETHYL-N-HYDROXYETHYLNITROSAMINE, 13147-25-6, 3,2'-DIMETHYL-4-AMINO-, Carcinogen: 2,2'-DIHYDROXY-DI-N-PROPYLNITROSAMINE, 53609-64-6, N-ETHYL-N-HYDROXYETHYLNITROSAMINE, 13147-25-6, 3,2'-DIMETHYL-4-AMINO-, 1% IN DIET FOR 32 WK BEGINNING 1 WK POST CARCINOGEN TREATMENT (STUDY DURATION: 36 WK), Target Tissue: Type of Lesion: URINARY BLADDER: CARCINOMA, Dose [Carcinogen]: 1000 MG/KG BW DHPN TWICE, 1500 MG/KG BW EHEN TWICE, 75 MG/KG BW 3 TIMES ADMINISTERED OVER FIRST 3 WK, Promoter: NONE USED) 1/14 (7%), 2/13 (15%), -114%, not significant; (Carcinogen: 2,2'-DIHYDROXY-DI-N-PROPYLNITROSAMINE, 53609-64-6, N-ETHYL-N-HYDROXYETHYLNITROSAMINE, 13147-25-6, 3,2'-DIMETHYL-4-AMINO-, Carcinogen: 2,2'-DIHYDROXY-DI-N-PROPYLNITROSAMINE, 53609-64-6, N-ETHYL-N-HYDROXYETHYLNITROSAMINE, 13147-25-6, 3,2'-DIMETHYL-4-AMINO-, 1% IN THE DIET FOR 32 WK BEGINNING 1 WK POST CARCINOGEN TREATMENT (STUDY DURATION: 36 WK), Target Tissue: Type of Lesion: LARGE INTESTINE: ADENOMA, Dose [Carcinogen]: 1000 MG/KG BW DHPN TWICE, 1500 MG/KG BW EHEN TWICE, 75 MG/KG BW 3 TIMES ADMINISTERED OVER FIRST 3 WK, Promoter: NONE USED) 7/14 (50%), 5/13 (38%), 24%, not significant; (Carcinogen: 2,2'-HYDROXY-DI-N-PROPYLNITROSAMINE, 53609-64-6, N-ETHYL-N-HYDROXYETHYL- NITROSAMINE, 13147-25-6, 3,2'-DIMETHYL-4-AM, Carcinogen: 2,2'-HYDROXY-DI-N-PROPYLNITROSAMINE, 53609-64-6, N-ETHYL-N-HYDROXYETHYL- NITROSAMINE, 13147-25-6, 3,2'-DIMETHYL-4-AM, 1% IN DIET BEGINNING 1 WK POST LAST CARCINOGEN DOSE AND CONTINUING FOR 32 WK (STUDY DURATION: 36 WK), Target Tissue: Type of Lesion: URINARY BLADDER: CARCINOMA, Dose [Carcinogen]: 1000 MG/KG IP DHPN 2X, 1500 MG/KG GAV EHEN 2X AND 75 MG/KG SC DMAB 3X GIVEN OVER THE INITIAL 3 WK PERIOD AT 3-4 D INTERV, Promoter: NONE USED) 1/14 (7%), 2/13 (15%), -114%, not calculated. In addition, the “tumour outcome (control, treated, inhibition, significance)” value was 4/10 (40%), 5/13 (38%), 5%, not significant (Carcinogen: 3,2'-DIMETHYL-4-AMINOBIPHENYL, 13394-86-0, 2% IN BASAL DIET BEGINNING POST CARCINOGEN TREATMENT AND CONTINUING FOR 40 WK (STUDY DURATION: 60 WK), Target Tissue: Type of Lesion: PANCREAS: ACINAR CELL NODULE, Dose [Carcinogen]: 50 MG/KG 1/2 WK FOR 20 WK TO RATS MAINTAINED ON ETHINYL ESTRADIOL CONTAINING DIET (0.75 PPM) FOR 1 WK CYCLED WITH ETHINY, Promoter: ETHINYL ESTRADIOL, 57-63-6) and 5/10 (50%), 5/13 (38%), 24%, not significant (Carcinogen: 3,2'-DIMETHYL-4-AMINOBIPHENYL, 13394-86-0, 2% IN BASAL DIET BEGINNING POST CARCINOGEN TREATMENT AND CONTINUING FOR 40 WK (STUDY DURATION: 60 WK), Target Tissue: Type of Lesion: PROSTATE: CARCINOMA, Dose [Carcinogen]: 50 MG/KG 1/2 WK FOR 20 WK TO RATS MAINTAINED ON ETHINYL ESTRADIOL CONTAINING DIET (0.75 PPM) FOR 1 WK CYCLED WITH ETHINY, Promoter: ETHINYL ESTRADIOL, 57-63-6). Further, the outcome (Carcinogen: 2,2'-DIHYDROXY-DI-N-PROPYLNITROSAMINE, 53609-64-6, N-ETHYL-N-HYDROXYETHYLNITROSAMINE, 13147-25-6, 3,2'-DIMETHYL-4-AMINO-, Carcinogen: 2,2'-DIHYDROXY-DI-N-PROPYLNITROSAMINE, 53609-64-6, N-ETHYL-N-HYDROXYETHYLNITROSAMINE, 13147-25-6, 3,2'-DIMETHYL-4-AMINO-, 1% IN DIET FOR 32 WK BEGINNING 1 WK POST CARCINOGEN TREATMENT (STUDY DURATION: 36 WK), Target Tissue: Type of Lesion: URINARY BLADDER: PAPILLOMA, Dose [Carcinogen]: 1000 MG/KG BW DHPN TWICE, 1500 MG/KG BW EHEN TWICE, 75 MG/KG BW 3 TIMES ADMINISTERED OVER FIRST 3 WK, Promoter: NONE USED) was 0/14 (0%), 3/13 (23%), -100%, not significant.
